These results are taken from ChEMBL document CHEMBL1201862, “PubChem BioAssay data set” (2004).

Activity calls are given as the source filed them.

Assay [1] can be described thus: blockers of HIV-1 ZM109 envelope-driven cell-cell fusion – HeLa effector, CEM target cells, luciferase, cherry-pick, dose response (AID 652058).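 Also: luciferase signal from HIV-1 Env mediated cell-cell fusion of effector and target cells.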 Format: functional, cell-based.
Assay [2] is described as follows: HIV-1 AD8 envelope cell-cell fusion blockers – cherry-pick, dose response (AID 652062).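 Also: luciferase signal from cell-cell fusion driven by HIV-1 clade B AD8 Env; potency is for inhibitors of fusion seen as a drop in luminescence.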 Format: functional, cell-based.
Assay [3] is described as follows: cells. Format: functional, cell-based.
Assay [4] is described as follows: off-target signal loss in HeLa-CEM21 co-culture – HeLa F-luc CTL cells, cherry-picked, counter-screen for HIV-1 Env fusion inhibitor project, dose response (AID 652040).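 Also: potency for signal decrease marking cytotoxic or nonspecific inhibition.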 In kind it is functional, cell-based.
A short description of assay [5]: blockers of HIV-1 envelope-mediated cell-cell fusion – cherry-pick, dose response (AID 652057). In kind it is functional, cell-based.
The nature of assay [6]: cells. Format: functional, cell-based. The source holds these as a separate data set.
Another assay concerns HEK293. Nature of the assay: EBV LMP1 TES2 canonical NF-kB signalling blockers – cell-based, HEK293, luciferase, cherry-pick, dose response (AID 588343). Format: functional. The conditions noted are these: Homo sapiens.
The target in assay [7] is T1, Beta-lactamase (Pseudomonas aeruginosa, UniProt Q79MP6). Nature of the assay: inhibition of IMP-1 beta-lactamase activity – biochemical, epi-absorbance, selectivity assay for VIM-2 inhibitor project, dose response (AID 1920).
For assay [8], the target named is Beta-lactamase (Salmonella choleraesuis (strain SC-B67), UniProt Q5J463). In words: Epi-absorbance-based counterscreen for selective VIM-2 inhibitors: dose response biochemical high throughput screening assay to identify inhibitors of TEM-1 serine-beta-lactamase.
Assay [9] addresses T1, Beta-lactamase. In words: […] counterscreen for selective VIM-2 inhibitors: dose response biochemical high throughput screening assay to identify inhibitors of IMP-1 metallo-beta-lactamase. On the technique in general: The purpose of a counterscreen is to sort out artefacts and off-target activity.
In assay [10] the target is T2, Short transient receptor potential channel 4 (Mus musculus, UniProt Q9QUQ5).
T2 sequence (Q9QUQ5 whole entry): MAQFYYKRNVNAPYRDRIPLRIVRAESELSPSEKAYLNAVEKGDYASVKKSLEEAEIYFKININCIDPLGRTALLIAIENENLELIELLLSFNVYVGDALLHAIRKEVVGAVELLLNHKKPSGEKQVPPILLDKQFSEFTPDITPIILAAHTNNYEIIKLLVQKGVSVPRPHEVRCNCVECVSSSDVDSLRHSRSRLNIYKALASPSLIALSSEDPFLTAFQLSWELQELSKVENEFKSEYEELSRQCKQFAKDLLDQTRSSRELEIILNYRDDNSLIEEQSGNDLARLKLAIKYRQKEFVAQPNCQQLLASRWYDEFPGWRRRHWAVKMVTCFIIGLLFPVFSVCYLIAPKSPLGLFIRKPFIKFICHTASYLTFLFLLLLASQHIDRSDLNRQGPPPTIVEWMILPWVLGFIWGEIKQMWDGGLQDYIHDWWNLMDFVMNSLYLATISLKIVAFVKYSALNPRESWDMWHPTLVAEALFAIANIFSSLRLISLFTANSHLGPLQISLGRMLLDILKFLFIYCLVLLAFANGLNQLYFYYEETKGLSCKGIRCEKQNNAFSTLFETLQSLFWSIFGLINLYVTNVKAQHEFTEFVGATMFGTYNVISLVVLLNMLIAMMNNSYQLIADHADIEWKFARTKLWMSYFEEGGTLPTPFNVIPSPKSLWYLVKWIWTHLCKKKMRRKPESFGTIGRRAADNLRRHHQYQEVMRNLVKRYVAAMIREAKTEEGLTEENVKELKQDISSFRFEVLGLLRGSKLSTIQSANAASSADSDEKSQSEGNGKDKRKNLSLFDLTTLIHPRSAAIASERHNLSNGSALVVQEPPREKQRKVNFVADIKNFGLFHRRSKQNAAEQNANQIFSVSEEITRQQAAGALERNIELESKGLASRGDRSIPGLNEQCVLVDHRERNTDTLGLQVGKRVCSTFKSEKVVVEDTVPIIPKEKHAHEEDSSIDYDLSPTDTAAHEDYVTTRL
Nature of the assay: block of DAMGO-driven TRPC4 calcium entry – cell-based, HEK293 TRPC4/mu-opioid, Fluo-4 calcium, dose response (AID 434942).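 Also: potency of inhibitors blocking the TRPC4 calcium response.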 In kind it is functional.

The next assay addresses T3, Cysteine protease ATG4B (Homo sapiens, UniProt Q9Y4P1).
T3 sequence (Q9Y4P1 whole entry): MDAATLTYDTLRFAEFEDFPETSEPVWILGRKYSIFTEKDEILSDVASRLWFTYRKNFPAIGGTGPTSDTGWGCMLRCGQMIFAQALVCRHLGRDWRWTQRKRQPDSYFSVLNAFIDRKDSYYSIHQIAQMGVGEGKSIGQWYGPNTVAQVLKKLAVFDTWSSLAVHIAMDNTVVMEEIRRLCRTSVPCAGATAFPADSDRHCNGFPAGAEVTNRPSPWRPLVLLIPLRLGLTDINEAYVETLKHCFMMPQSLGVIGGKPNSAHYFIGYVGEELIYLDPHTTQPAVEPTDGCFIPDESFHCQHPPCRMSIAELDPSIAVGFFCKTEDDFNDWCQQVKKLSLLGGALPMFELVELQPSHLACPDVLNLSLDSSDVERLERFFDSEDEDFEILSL
In kind it is functional.

In the next assay the target is Phospholipase A2 (Homo sapiens, UniProt P04054). In kind it is functional.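 Also: confirmatory dose-response counterscreen on phospholipase A2, testing hits that came from an ultra-high-throughput screen for ATG4B inhibitors.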
The target of assay [11] is Fructose-bisphosphate aldolase (Mycobacterium tuberculosis, UniProt P9WQA3). Nature of the assay: Fluorescence-based biochemical high throughput dose response assay for inhibitors of the fructose-bisphosphate aldolase (FBA) of M. tuberculosis. Format: functional.
Assay [12] has as its target T4, Methionyl-tRNA synthetase, putative (Trypanosoma brucei brucei, UniProt Q38C91).
T4 sequence (Q38C91 whole entry): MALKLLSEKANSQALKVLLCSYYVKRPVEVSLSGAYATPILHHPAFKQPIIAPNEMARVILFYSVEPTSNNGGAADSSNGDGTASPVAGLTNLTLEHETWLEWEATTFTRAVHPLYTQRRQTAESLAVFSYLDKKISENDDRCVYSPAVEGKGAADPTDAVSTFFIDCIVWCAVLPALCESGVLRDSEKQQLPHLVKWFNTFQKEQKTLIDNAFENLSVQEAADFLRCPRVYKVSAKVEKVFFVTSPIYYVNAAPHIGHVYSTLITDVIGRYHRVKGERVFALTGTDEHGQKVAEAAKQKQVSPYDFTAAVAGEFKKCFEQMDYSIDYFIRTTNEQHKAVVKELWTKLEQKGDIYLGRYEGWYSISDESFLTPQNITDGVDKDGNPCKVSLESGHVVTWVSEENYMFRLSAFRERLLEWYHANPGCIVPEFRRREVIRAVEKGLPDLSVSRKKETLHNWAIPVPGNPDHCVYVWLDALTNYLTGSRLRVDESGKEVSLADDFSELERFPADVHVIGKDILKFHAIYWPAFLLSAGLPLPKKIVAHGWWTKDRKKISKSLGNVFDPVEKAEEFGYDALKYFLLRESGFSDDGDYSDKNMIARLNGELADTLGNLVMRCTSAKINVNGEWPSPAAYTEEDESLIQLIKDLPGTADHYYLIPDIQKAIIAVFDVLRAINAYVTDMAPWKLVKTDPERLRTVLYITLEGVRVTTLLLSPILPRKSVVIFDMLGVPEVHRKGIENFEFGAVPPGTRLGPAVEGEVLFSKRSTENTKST
In kind it is functional, Trypanosoma brucei brucei strain 927/4 GUTat10.1.

Assay [13] in a line: Counterscreen for inhibitors of Trypanosoma brucei methionyl tRNA synthetase (MetRS): Luminescence-based cell-based high throughput dose response assay to identify compounds that are cytotoxic to Jurkat human T lymphocyte cells. Format: functional.
For assay [14], the target named is T4, Methionyl-tRNA synthetase, putative. Format: functional, Trypanosoma brucei brucei strain 927/4 GUTat10.1. This is another data set of the same source.
In assay [15] the target is T5, Trace amine-associated receptor 1 (Homo sapiens, UniProt Q96RJ0).
T5 sequence (Q96RJ0 whole entry): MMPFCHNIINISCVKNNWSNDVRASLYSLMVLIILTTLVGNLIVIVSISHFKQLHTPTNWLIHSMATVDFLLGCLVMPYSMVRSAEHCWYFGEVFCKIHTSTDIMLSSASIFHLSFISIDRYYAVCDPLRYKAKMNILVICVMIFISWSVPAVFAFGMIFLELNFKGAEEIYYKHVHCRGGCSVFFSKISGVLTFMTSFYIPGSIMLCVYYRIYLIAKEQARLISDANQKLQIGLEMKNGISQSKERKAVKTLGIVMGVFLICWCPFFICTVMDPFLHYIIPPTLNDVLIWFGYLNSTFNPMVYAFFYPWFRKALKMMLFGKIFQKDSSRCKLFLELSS
In words: Counterscreen for agonists of the human trace amine associated receptor 1 (hTAAR1): Fluorescence-based cell-based high throughput dose response assay to identify hTAAR1 agonist that also desensitize TAAR1 receptor response. In kind it is functional.

Assay [16] in a line: cells. Format: functional, cell-based. The source holds these as a separate data set.
The nature of assay [17]: cells. In kind it is functional, cell-based. The source holds these as a separate data set.
Assay [18] has as its target T5, Trace amine-associated receptor 1. In words: Fluorescence-based cell-based high throughput dose response assay to identify agonists of the human trace amine associated receptor 1 (TAAR1). Format: functional.
A short description of assay [19]: viability loss in CEM21 cells – cell-based, CellTiter-Glo luminescence, cherry-picked, cytotoxicity control for viral fusion inhibitor project, dose response (AID 652042).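 Also: potency for signal decrease meaning cytotoxicity.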 In kind it is functional.
The nature of assay [20]: cytotoxicity in HEK293 background cells – cell-based, dry powder, set 2, counter-screen for EBV LMP1 inhibitor project, dose response (AID 624374). Format: functional.
Assay [21] in a line: viability loss in human Jurkat cells – cell-based, luminescence, cytotoxicity control for P. falciparum gametocyte viability project, dose response (AID 1117277).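 Also: potency reflects loss of cellular ATP meaning fewer viable cells.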 In kind it is functional.
Assay [22] can be described thus: viability inhibitors of stage V gametocytes – luminescence, dose response (AID 1117278).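 Also: gametocytes exposed to compound for 24 hours.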 Format: functional, cell-based.
In another assay the test system is Vero. In words: viability loss in Vero cells – cell-based, plate reader, cherry-pick samples, cytotoxicity control, dose response (AID 687020). In kind it is functional. The note with it: Chlorocebus sabaeus.
In a further assay the target is Cytochrome P450 3A4 (Homo sapiens, UniProt P08684).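 Also: CYP3A4 tested as one member of a cytochrome P450 panel screen.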
The target of assay [23] is Long-chain-fatty-acid--AMP ligase FadD28 (Mycobacterium tuberculosis, UniProt P9WQ59). Nature of the assay: Fluorescence polarization aasay to screen for inhibitors that compete for the binding of FadD28 to a bisubstrate Measured in Biochemical System Using Plate Reader - 2147-01_Inhibitor_Dose_CherryPick_Activity. In kind it is functional, Mycobacterium tuberculosis H37Rv.

For assay [24], the target named is Heat shock protein HSP 90-alpha (Homo sapiens, UniProt P07900). In kind it is functional, organism-based.
For assay [25], the target named is Voltage-gated inwardly rectifying potassium channel KCNH2 (Homo sapiens, UniProt Q12809). The note with it: Potency.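 Also: confirmatory quantitative high-throughput screen measuring inhibition of hERG channel activity.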
Chain of Voltage-gated inwardly rectifying potassium channel KCNH2 (Q12809 whole entry): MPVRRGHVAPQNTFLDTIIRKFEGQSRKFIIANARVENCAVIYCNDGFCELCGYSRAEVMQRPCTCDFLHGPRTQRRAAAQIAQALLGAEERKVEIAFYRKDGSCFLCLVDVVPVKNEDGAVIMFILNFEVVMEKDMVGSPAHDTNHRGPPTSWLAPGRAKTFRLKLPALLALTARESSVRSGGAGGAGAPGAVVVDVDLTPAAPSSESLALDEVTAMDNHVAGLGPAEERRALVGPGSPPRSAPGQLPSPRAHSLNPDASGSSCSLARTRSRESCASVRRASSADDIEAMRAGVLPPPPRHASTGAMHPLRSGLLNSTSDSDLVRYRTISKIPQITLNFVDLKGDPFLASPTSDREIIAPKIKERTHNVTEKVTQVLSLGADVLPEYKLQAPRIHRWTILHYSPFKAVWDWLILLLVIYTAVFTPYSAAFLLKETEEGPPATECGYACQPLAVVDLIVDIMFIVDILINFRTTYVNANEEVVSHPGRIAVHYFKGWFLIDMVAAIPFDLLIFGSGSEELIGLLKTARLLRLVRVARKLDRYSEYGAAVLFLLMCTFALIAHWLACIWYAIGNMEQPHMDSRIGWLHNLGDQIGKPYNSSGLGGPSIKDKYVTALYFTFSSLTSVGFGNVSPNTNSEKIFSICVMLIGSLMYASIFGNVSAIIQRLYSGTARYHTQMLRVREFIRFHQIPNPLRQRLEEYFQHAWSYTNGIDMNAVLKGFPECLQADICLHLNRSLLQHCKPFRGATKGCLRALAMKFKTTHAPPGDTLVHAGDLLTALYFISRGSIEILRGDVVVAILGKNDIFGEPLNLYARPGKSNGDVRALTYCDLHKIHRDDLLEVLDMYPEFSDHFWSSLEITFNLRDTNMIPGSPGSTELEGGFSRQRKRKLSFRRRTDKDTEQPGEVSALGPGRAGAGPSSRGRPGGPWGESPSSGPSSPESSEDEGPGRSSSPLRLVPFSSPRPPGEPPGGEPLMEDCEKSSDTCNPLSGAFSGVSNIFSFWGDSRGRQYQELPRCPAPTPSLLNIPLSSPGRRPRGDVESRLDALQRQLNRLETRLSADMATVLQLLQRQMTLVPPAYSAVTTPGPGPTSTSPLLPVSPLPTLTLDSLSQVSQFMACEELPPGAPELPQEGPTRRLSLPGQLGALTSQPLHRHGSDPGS

T1 sequence (Q79MP6 whole entry): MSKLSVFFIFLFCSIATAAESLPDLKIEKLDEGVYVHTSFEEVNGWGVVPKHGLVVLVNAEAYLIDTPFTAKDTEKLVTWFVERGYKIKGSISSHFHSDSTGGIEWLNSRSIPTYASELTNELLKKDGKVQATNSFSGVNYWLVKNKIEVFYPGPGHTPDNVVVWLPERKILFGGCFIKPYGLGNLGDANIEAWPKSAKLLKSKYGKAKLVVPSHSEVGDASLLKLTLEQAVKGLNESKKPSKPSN
Chain of Beta-lactamase (Salmonella choleraesuis (strain SC-B67), UniProt Q5J463) (Q5J463 whole entry): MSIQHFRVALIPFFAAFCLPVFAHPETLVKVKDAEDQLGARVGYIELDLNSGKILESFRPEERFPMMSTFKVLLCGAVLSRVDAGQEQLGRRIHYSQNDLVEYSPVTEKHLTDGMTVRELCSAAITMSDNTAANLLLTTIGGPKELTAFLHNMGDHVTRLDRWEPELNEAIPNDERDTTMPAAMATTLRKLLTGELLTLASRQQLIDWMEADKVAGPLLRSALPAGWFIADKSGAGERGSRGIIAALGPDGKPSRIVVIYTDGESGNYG
Chain of Fructose-bisphosphate aldolase (P9WQA3 whole entry): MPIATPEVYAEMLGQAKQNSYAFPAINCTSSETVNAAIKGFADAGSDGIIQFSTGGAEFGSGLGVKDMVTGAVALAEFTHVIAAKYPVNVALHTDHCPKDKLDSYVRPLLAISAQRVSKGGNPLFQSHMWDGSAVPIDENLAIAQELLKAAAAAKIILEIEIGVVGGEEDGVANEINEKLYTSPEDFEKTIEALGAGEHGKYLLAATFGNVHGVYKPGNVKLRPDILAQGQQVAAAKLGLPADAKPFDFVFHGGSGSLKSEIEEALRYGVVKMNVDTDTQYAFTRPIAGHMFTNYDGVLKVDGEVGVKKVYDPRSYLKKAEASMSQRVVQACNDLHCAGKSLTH
Chain of Cytochrome P450 3A4 (P08684 whole entry): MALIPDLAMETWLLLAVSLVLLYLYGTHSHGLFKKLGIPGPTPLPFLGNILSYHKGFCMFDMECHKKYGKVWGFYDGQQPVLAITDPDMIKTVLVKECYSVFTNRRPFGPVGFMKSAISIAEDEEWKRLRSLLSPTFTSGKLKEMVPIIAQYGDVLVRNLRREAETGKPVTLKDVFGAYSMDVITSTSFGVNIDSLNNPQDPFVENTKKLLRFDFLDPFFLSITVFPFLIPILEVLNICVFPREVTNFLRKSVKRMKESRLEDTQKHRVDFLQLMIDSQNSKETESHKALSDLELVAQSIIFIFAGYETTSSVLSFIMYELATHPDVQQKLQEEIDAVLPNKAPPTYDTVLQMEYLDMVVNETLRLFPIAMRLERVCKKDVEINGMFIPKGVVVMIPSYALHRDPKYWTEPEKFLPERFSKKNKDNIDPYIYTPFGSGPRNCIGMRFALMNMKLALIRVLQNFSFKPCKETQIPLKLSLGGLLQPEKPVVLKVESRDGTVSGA
Chain of Long-chain-fatty-acid--AMP ligase FadD28 (P9WQ59 whole entry): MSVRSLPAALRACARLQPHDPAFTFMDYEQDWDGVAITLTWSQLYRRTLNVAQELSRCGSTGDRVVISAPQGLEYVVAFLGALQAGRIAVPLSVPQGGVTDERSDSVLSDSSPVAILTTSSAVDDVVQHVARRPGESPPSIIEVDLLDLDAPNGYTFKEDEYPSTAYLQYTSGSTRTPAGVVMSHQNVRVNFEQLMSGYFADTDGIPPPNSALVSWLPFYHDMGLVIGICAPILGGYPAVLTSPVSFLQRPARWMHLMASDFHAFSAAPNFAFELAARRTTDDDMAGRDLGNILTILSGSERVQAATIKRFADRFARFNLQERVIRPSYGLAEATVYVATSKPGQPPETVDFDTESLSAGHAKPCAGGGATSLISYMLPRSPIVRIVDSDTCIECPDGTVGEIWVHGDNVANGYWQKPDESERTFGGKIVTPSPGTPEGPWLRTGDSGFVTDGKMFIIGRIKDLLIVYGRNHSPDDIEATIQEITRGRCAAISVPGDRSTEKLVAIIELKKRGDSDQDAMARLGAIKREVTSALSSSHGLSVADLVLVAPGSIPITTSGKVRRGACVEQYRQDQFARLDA
Chain of Phospholipase A2 (P04054 whole entry): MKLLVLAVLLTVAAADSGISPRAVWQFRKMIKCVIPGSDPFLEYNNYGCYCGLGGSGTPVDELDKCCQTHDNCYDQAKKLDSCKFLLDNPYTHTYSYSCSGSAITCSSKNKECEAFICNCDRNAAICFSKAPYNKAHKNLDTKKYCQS

As usually defined, the AC50 is the concentration at which the activity in the assay is half-maximal. One may read the EC50 as the concentration that produces a half-maximal response. Take `NC(=O)c1sc2nccc(Nc3ccccc3)c2c1N`: the AC50 in assay [1] was 0.726 µM (active); in assay [2] it was < 0.26 µM (active); in assay [4], 2.12 µM (active); in assay [5], 1.37 µM (active); in the assay on HEK293, 3.96 µM (active). In addition, the EC50 in the assay “cells [3]” and in “cells [6]” was > 350 µM (not active) in each case.

A word on the IC50: it is the midpoint of a concentration-inhibition curve. On to `O=C1Nc2cc(C(=O)NCCCN3CCOCC3)ccc2S/C1=C/c1ccccc1F`, for which the IC50 on Beta-lactamase [7], on Beta-lactamase [8] and at Beta-lactamase [9] was > 59.6 µM (inactive) in each case. In addition, in assay [10], the EC50 was 2.66 µM (active).

As for `CC(C)(C)C(=O)Nc1nnc(CSCc2ccccc2F)s1`, the IC50 on Cysteine protease ATG4B was 8.86 µM (active); at Beta-lactamase [7], > 59.6 µM (inactive); at Phospholipase A2 it was 6.65 µM (active); on Beta-lactamase [8], > 59.6 µM (inactive); at Beta-lactamase [9] it was > 59.6 µM (inactive).

On to `CCCC1OC23CCCCC2C(C#N)(C(=N)O3)C1(C#N)C#N` (stereo unspecified), for which the IC50 in assay [11] was > 9.99 µM (inactive).

Turning to `Cc1ccc(NC(=O)CN(C)C(=O)Cc2ccc(Cl)cc2Cl)cc1`, the IC50 in assay [12] was 6.81 µM (active); in assay [13] it was 83.3 µM (inactive); in [14], 16.5 µM (inactive).

In the case of `O=C(CC1CCCC1)N[C@H](C(=O)N1CCC[C@H]1C(=O)NCCc1ccccc1Cl)c1ccccc1`, the IC50 in assay [15] is 6.57 µM (active); in “cells [17]”, > 29.9 µM (inactive). In addition, the EC50 in the assay “cells [16]” is > 29.9 µM (inactive); in assay [18], 2.2 µM (active).

For `COc1ccc2c3c([nH]c2c1)[C@H](CO)N(C(=O)Nc1cccc(F)c1)CC31CCN(S(=O)(=O)c2ccccc2)CC1`, the AC50 in assay [5] was 25.4 µM (active); in assay [19] it was 19.4 µM (active).

As for `C[C@H](NC(=O)C[C@@H]1C=C[C@@H](NC(=O)Cc2ccccn2)[C@@H](CO)O1)c1ccccc1`, the AbsAC35 in assay [20] worked out at 153.45 µM.

In assay [20], `CN1C(=O)c2cc(NC(=O)Cc3cccs3)ccc2OC[C@@H]2O[C@H](CC(=O)NCc3ccc(-c4ccccc4)cc3)CC[C@H]21` yielded an AbsAC35 of 112.32 µM.

Turning to `O=[N+]([O-])c1ccc(-c2ccc(/C=N/c3cccc4ccccc34)o2)cc1`, the IC50 in assay [11] was 8.15 µM (active).

On to `COc1ccc(C2=Nn3c(nnc3-c3ccccc3OC)SC2)cc1OCC1CC1`, for which the concentration for half-maximal inhibition (IC50) in assay [21] is 0.35 µM (active); in [22], > 109 µM (inactive). For the same molecule, in the assay with Vero, the AC50 is 29.1 µM (active).

Regarding `CCCCCCCC/C=C\CCCCCCCC(=O)NCCO` [OLEOYLETHANOLAMIDE], the AC50 at Cytochrome P450 3A4 was 31.6 µM (inconclusive); in assay [23], > 100 µM (inactive); in assay [24] it was 7.67 µM (active); in assay [25] it was 35.5 µM (inconclusive).
